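All cell lines were grown in 96-well plates and treated with compound for 48 hours. Abbreviation: GI50, concentration required for 50% inhibition of growth. TGI is the concentration that stops growth completely.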
How the values were obtained:
Assay in all cases: growth of human tumour cells (NCI), 48 h
ACHN renal = tested on: ACHN renal
CAKI-1 renal = tested on: CAKI-1 renal
HOP-62 NSCLC = tested on: HOP-62 NSCLC
MCF7 breast = tested on: MCF7 breast
MDA-MB-231 breast = tested on: MDA-MB-231 breast
RXF 393 renal = tested on: RXF 393 renal
SF-539 CNS = tested on: SF-539 CNS
SR leukemia = tested on: SR leukemia
U251 CNS = tested on: U251 CNS
UACC-257 melanoma = tested on: UACC-257 melanoma

SMILES | GI50 (ACHN renal) | TGI (ACHN renal) | GI50 (CAKI-1 renal) | TGI (CAKI-1 renal) | GI50 (HOP-62 NSCLC) | TGI (HOP-62 NSCLC) | GI50 (MCF7 breast) | TGI (MCF7 breast) | GI50 (MDA-MB-231 breast) | TGI (MDA-MB-231 breast) | GI50 (RXF 393 renal) | TGI (RXF 393 renal) | GI50 (SF-539 CNS) | TGI (SF-539 CNS) | GI50 (SR leukemia) | TGI (SR leukemia) | GI50 (U251 CNS) | TGI (U251 CNS) | GI50 (UACC-257 melanoma) | TGI (UACC-257 melanoma)
CCn1c(-c2nonc2N)nc2c(C#CC(C)(C)O)ncc(OC[C@H]3CCCNC3)c21 | 25.7 µM | > 100 µM | 32.7 µM | > 100 µM | 23.3 µM | 72.7 µM | 1.05 µM | 22.9 µM | 17.8 µM | 55.6 µM | 0.228 µM | 11.6 µM | 0.313 µM | 16.9 µM | 12 µM | 41.8 µM | 0.533 µM | 21.9 µM | 20.8 µM | 41.2 µM
CN(Cc1cc(Br)cc(Br)c1O)Cc1c(O)ccc2ccccc12 |  | 41.7 µM |  | 31.5 µM |  | 38.9 µM |  | 58.3 µM |  | 35.6 µM |  | 38.8 µM |  | 35.6 µM |  | 55.6 µM |  | 41 µM |  | 37.5 µM
C[N+](C)(C)CC(=O)N/N=C(\C(=O)NC1=C(Cl)C(=O)c2ccccc2C1=O)C(C#N)c1nc(-c2ccc([N+](=O)[O-])cc2)cs1 (stereo not given) |  | 26 µM |  | 48.6 µM |  | 34.4 µM |  | 22.3 µM |  | 39.3 µM |  | 30.2 µM |  | 22.3 µM |  | 52.5 µM |  | 26.4 µM |  | 9.11 µM
CCN(CC)C(=S)SCN1C(=O)c2ccccc2S1(=O)=O | 64.6 µM | > 100 µM | > 70.5 µM | > 100 µM | 39.3 µM | > 100 µM | 0.562 µM | > 100 µM | 50.9 µM | > 100 µM | > 51.3 µM | > 80.1 µM | 41.7 µM | > 100 µM | < 0.01 µM | 27.7 µM | 52.5 µM | > 100 µM | 56.3 µM | > 100 µM
CCCCCCCCCCCCCCCCCCOCC(CCP(=O)(CP(=O)(O)O)Oc1ccccc1)OCCCCCCCCCCCCCCCCCC (stereo not given) |  | > 100 µM |  | > 100 µM |  | > 100 µM |  | > 100 µM |  | > 100 µM |  | > 100 µM |  | > 100 µM |  | > 100 µM |  | > 100 µM |  | > 100 µM
Clc1ccccc1CNc1c2ccccc2nc2ccccc12 | 1.76 µM | 6.89 µM | 2.11 µM | 8.08 µM | 3.62 µM | 12.8 µM | 1.27 µM | 5.63 µM | 2.39 µM | 10.2 µM | 1.29 µM | 4.44 µM | 1.84 µM | 6.71 µM | 1.89 µM | 6.99 µM | 2.36 µM | 9.7 µM | 2.99 µM | 11.5 µM
CC1(C)NCCC[C@]2(C)[C@H]3CC[C@@H]4[C@H]5[C@H](C(=O)/C=C/c6ccccn6)CC[C@]5(CO)CC[C@@]4(C)[C@]3(C)CC[C@@H]12 | 3.58 µM | 13.6 µM | 2.14 µM | 6.85 µM | 6.23 µM | 29.4 µM | 1.85 µM | 5.8 µM | 2.29 µM | 5.64 µM | 2.51 µM | 8.08 µM | 1.78 µM | 3.6 µM | 1.81 µM | 6.27 µM | 1.68 µM | 3.24 µM | 3.99 µM | 19 µM
COc1cc(C2=N/C(=C/c3cccs3)C(=O)O2)cc(OC)c1OC |  | > 100 µM |  | > 100 µM |  | > 100 µM |  | > 100 µM |  | > 100 µM |  | > 100 µM |  | > 100 µM |  | > 100 µM |  | > 100 µM |  | > 100 µM

Reference: PubChem BioAssay (NCI)
